Reference: patent US6759064B2, “Compositions based on vanilloid-catechin synergies for prevention and treatment of cancer” (Purdue Research Foundation, priority 2001, dated 2004)
Where a name gives a salt, the structure may show the parent alone. Read-outs that look alike come from different tables or passages of the source.

How the values were obtained:
[1] = target: T1, NADH oxidase (tNOX) of 4T1 cells (Mus musculus, UniProt Q8R0Z2); assay: inhibition of NADH oxidase (tNOX) activity of 4T1 cells; type: biochemical
T1 construct: endogenous in cells; host or cells: 4T1 mouse mammary tumor cells
T1 sequence (Q8R0Z2 1-598): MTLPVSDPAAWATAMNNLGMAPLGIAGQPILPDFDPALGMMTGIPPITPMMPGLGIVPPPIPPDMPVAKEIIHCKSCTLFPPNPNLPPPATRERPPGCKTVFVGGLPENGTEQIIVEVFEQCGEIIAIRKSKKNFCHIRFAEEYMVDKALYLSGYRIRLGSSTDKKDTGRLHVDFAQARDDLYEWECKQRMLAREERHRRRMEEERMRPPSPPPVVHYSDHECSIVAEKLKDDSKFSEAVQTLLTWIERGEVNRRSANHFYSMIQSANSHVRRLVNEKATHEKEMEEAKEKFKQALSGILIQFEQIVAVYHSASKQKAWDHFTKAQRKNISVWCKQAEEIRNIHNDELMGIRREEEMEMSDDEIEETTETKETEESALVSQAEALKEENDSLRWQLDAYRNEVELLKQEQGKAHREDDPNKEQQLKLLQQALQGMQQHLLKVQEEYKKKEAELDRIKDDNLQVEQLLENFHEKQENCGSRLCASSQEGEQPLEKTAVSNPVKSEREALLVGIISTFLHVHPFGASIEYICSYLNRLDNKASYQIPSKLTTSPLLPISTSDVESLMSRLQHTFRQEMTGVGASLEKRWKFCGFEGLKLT
Procedure: (§1) HeLa (ATCC CCL2) cells were grown in 150 cm^2 flasks in Minimal Essential Medium (Gibco), pH 7.4, at 37° C. with 10% bovine calf serum (heat inactivated, plus 50 mg/l gentamicin sulfate (Sigma). A mouse mammary tumor subpopulation line 4T1 arising from a BALB/cfC3H mouse (Miller et al., 1981, Brit. J. Cancer 56:561 and Miller et al., 1990, Invasion Metastasis 10:101) was grown in DME 10, Dulbecco's modified Eagle's medium supplemented with 5% fetal calf serum, 5% newborn calf serum, 1 mM mixed non-essential amino acids, 2 mM L-glutamine, penicillin (100 units/ml), and streptomycin (100 μg/ml).
(§2) NADH oxidase activity may be monitored and measured by virtue of the decrease in absorbance at 340 nm wavelength. A millimolar extinction coefficient of 6.22 for NADH was used to calculate rates of NADH oxidation. Additional tests are such as those described by Morre, 1994, Bioenerg. Biomemb. 26:421, and Chueh et al., 1997, J. Biol. Chem. 272:11221, which are incorporated by reference in their entireties.

4T1 cells = assay: growth of 4T1 cells over 48 h, 96-well plate assay; type: cell-based, mouse; details: 4T1, 48 h
Procedure: as §1
Cells were quantitated using a standard cytotoxicity assay (Matthews & Neale, 1987, In Lymphokines and Interferons. A Practical Approach. Clemens, M. J. et al., eds. IRL Press, Oxford, p. 221).

[2] = system: 4T1 mouse mammary carcinoma cells; assay: tumor weight and metastases of 4T1 mouse mammary carcinoma cells in BALBc mice; type: in vivo
Procedure: Cells from monolayer culture were suspended in Hank's buffered salt solution and 1×10^6 cells were injected into the subscapular region in a volume of 0.1 ml.
Anti-metastatic drugs were administered in the dose/injection indicated intratumoral in 0.1 ml total volume on alternate days beginning after palpable tumor masses were discernible (approximately 7 days post implantation) for a total of 6 injections. Appropriate solvent and sham-injected controls were included. At […] post tumor implantations, mice were sacrificed and major organs (e.g., lung, liver, lymph nodes) were examined for evidence of metastases.

HeLa cells = assay: growth of HeLa cells in culture, 96-well plate assay; type: cell-based, human; details: for A580, % of no addition / Growth, % of control: HeLa; for Growth, % of control: no source
[3] = target: T2, NADH oxidase (tNOX) of HeLa cells (Homo sapiens, UniProt Q16206); assay: inhibition of NADH oxidase (tNOX) activity of HeLa cells; type: biochemical
T2 construct: endogenous in cells; host or cells: HeLa (ATCC CCL2)
T2 sequence (Q16206 1-610): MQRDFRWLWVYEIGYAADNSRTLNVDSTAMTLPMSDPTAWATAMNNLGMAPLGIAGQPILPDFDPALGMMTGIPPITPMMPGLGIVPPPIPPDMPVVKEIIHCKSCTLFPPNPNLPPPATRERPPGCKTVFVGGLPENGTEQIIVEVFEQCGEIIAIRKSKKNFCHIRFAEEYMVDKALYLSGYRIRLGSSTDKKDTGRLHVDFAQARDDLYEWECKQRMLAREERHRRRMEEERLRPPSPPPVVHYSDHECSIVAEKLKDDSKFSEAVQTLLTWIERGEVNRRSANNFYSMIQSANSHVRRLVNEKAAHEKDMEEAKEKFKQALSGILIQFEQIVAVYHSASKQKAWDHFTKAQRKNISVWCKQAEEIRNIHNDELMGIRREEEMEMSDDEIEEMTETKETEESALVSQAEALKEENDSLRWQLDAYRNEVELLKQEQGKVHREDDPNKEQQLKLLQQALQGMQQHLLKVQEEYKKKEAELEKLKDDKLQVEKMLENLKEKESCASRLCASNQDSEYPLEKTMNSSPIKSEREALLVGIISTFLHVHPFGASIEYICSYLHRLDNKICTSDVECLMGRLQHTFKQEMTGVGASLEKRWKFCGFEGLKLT
Procedure: as §1, §2

[4] = clearance of EGCg from the blood; details: in vivo
cancer cells = assay: cancer cell growth and apoptosis under EGCg; type: cell-based
NADH oxidase = target: T3, NADH oxidase (Homo sapiens, UniProt Q16206); assay: NADH oxidase assay, genestein interactions (data not shown); type: biochemical
T3 sequence (Q16206 1-610): T2 sequence (Q16206 1-610)
From the text: as §2

## COc1cc(CN)ccc1O [Vanillylamine, 4-hydroxy-3-methoxybenzy amine hydrochloride]
[1]; 4T1, 1.5 × 10^6 cells (Table 2), read-out: EC50(M), inhibition of NADH oxidase
  EC50: 5e-09 M
4T1 cells; final concentration 1 μM
  A580, % of no addition: 144 % of no addition
[2]; BALBc mice, intratumoral on alternate days, 6 injections, sacrifice 15 days post implantation
  Tumor weight: 0.50 ± 0.20
[2]; mouse model
  neurological discomfort and possible toxicity: without the neurological discomfort and possible toxicity
  prevention of metastasis in a mouse model: effective
[2]; three animals
  Tumor growth and metastatic spread: prevented
HeLa cells; 48 h, final concentration 1 μM
  A580, % of no addition: 128 % of no addition
HeLa cells; 48 h, vanillylamine 1:150
  Growth, % of control: 130 % of control
HeLa cells; 72 h, vanillylamine 1:150
  Growth, % of control: 120 % of control
[3]; HeLa, 1.5 × 10^6 cells (Table 2), read-out: EC50(M), inhibition of NADH oxidase
  EC50: 1e-09 M

## (−)-epigallocatechin gallate [EGCg]
[4]
  clearance from the blood: rapidly cleared from the blood and metabolized
[1]; 4T1 cells grown in culture (Table 3), read-out: EC50(M), inhibition of tNOX activity
  EC50: 1e-08 M
4T1 cells; final concentration 20 μM
  A580, % of no addition: 58 % of no addition
Cancer cells; challenged with 10^−7 M EGCg every two hours during the day
  growth of cancer cells: inhibited
Cancer cells; if the EGCg is removed, cancer cells resume normal rates of growth
  reversibility of the effect on cancer cell growth: reversible
HeLa cells; EGCg at 1 μM
  inhibition of growth of HeLa cells: 12%
HeLa cells; 48 h, final concentration 20 μM
  A580, % of no addition: 90 % of no addition
HeLa cells; 48 h, EGCg 1:150
  Growth, % of control: 112 % of control
HeLa cells; 72 h, EGCg 1:150
  Growth, % of control: 97 % of control
[3]; HeLa cells grown in culture (Table 3), read-out: EC50(M), inhibition of tNOX activity
  EC50: 1e-07 M

## O=c1c(-c2ccc(O)cc2)coc2cc(O)cc(O)c12 [genestein]
HeLa cells; data not shown
  growth of HeLa cells: inhibited
  interactions of genestein with EC or Tegreen: additive
HeLa cells; genestein at 10 μM
  inhibition of growth of HeLa cells: 87%
HeLa cells; genestein at 100 μM
  toxicity: toxic
HeLa cells; higher genestein concentrations
  interactions with EGCg on growth of HeLa cells: no interactions were seen
HeLa cells; low genestein concentrations, data not shown
  interactions with 1 μM EGCg on growth of HeLa cells: additive
NADH oxidase
  synergy with either vanillylamine or EGCg in the NADH oxidase assay: did not exhibit
